Reference: US8486981B2, “Selective ligands for the dopamine 3 (D3) receptor and methods of using the same” (The Regents of the University of Michigan, priority 2011, dated 2013)

Legend:
D3 dopamine receptors = biological target: T1, D3 dopamine receptors (Rattus norvegicus, UniProt P19020); test: [3H]R(+)-7-OH-DPAT binding assay, rat ventral striatum membranes; conditions: rat brain; for Ki: mean ± SEM of 3-6 determinations; for Selectivity D1-like/D3 / Selectivity D2-like/D3: ratio of Ki values
T1 construct: Rat ventral striatum (nucleus accumbens and olfactory tubercles) was prepared in assay buffer; tissue Pel-Freez, Rogers, Ark; host or cells: rat ventral striatum (nucleus accumbens and olfactory tubercles) membranes
T1 sequence (P19020 whole entry): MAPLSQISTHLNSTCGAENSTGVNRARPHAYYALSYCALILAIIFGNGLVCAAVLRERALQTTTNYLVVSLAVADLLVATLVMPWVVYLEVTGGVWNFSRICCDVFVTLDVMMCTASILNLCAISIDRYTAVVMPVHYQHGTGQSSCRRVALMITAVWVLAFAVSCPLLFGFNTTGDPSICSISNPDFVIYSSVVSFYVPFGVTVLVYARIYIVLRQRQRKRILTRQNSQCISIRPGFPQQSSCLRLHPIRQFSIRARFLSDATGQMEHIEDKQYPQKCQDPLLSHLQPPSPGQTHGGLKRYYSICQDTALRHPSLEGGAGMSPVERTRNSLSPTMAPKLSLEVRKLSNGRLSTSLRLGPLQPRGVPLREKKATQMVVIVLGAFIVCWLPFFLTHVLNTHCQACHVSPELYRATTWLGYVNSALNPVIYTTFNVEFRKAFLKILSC
Description: All the synthesized compounds were determined for the binding affinities at the D3, D1-like and D2-like receptors in membranes prepared from the brains of adult, male Sprague-Dawley rats (Pel-Freez, Rogers, Ark.). All compounds were dissolved in 100% EtOH at a concentration of 5 mM.
[^3H]R(+)-7-OH-DPAT Binding Assays.
[^3H]R-(+)-7-OH-DPAT binding assays for the D3 dopamine receptors were performed as previously described in detail.^(44),(45) Rat ventral striatum (nucleus accumbens and olfactory tubercles) was prepared in assay buffer (50 mM Tris, 1 mM EDTA; pH 7.4 at 23° C.) to yield a final concentration of 10 mg original wet weight (o.w.w.)/ml. […] Nonspecific binding was defined by 1 μM spiperone. Assay tubes were incubated at 23° C. for 90 min. The reaction was terminated by rapid vacuum filtration.

Solubility in water = format: physicochemical
D3 and D2 receptors = test: Effect on pramipexole-induced yawning in rats; format: in vivo, rat; conditions: 30-min pretreatment; 38/52 […], SB-277011A 32 mg/kg, L-741,626 1.0 mg/kg
Description: (§1) Male Sprague-Dawley rats (Harlan; Indianapolis, Ind.) weighing 250-300 g were housed three to a cage for yawning studies, and one to a cage for hypothermia studies, and maintained on a 12-h dark/light cycle with lights on at 7:00 AM in a temperature (21-23° C.) and humidity controlled environment with free access to standard Purina rodent chow and water. […] All drugs were administered subcutaneously (s.c.) in a volume of 1 ml/kg.
(§2) Observation of yawning behavior began immediately after each injection, and the total number of yawns was recorded for 60 min thereafter.
(§3) Dose-response curves for the induction of yawning and hypothermia were determined with 6 rats per group, and results expressed as the mean number of yawns, or change in body temperature 60 min post agonist injection compared to the body temperature 1 min prior to the agonist injection±standard error of the mean (SEM).

D2 receptor [1] = biological target: T2, D2 receptor (Rattus norvegicus, UniProt P61169); test: Hypothermia assay (core body temperature) in rats; format: in vivo; conditions: 10.0 mg/kg s.c.
T2 construct: evaluated for the effect in the induction of yawning and hypothermia in rats; tissue Harlan; Indianapolis, Ind; host or cells: living male Sprague-Dawley rats
T2 sequence (P61169 whole entry): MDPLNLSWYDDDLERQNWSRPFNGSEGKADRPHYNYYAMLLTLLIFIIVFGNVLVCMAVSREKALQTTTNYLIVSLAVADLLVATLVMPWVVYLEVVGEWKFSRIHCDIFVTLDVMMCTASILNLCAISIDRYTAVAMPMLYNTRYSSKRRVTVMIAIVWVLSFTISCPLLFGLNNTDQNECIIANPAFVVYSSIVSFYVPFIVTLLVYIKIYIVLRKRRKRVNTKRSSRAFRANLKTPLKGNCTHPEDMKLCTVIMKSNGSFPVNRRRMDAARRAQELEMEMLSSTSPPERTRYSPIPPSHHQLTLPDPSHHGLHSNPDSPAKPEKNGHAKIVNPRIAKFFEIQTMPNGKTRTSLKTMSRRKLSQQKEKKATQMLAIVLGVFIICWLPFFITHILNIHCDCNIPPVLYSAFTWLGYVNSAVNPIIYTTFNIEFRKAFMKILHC
Description: as §1
Rats were anesthetized with ketamine/xylazine (100/10 mg/kg; i.p.) and their abdominal area was shaved and cleaned with alternating betadine and alcohol swabs prior to surgical implantation of radio-telemetric probes (E-4000 E-Mitter, Mini-Mitter, Bend, Oreg., USA). […]
On the day of testing, rats were weighed and returned to their home cages, which were placed onto a receiving pad (ER-4000 Receiver, Mini-mitter, Bend, Oreg.) to allow for the collection of core body temperature. Temperature measurements were taken every min with at least 30 min of baseline temperature data recorded prior to the administration of antagonist or vehicle. Agonist or vehicle injections were administered 30 min thereafter, and core body temperature was recorded for a period of at least the next 60 min. […]

D3 receptor = biological target: T3, D3 receptor (Rattus norvegicus, UniProt P19020); test: Induction of yawning behavior in rats; format: in vivo; conditions: for Emax: rat, read-out: Increase in yawning relative to maximum effect of pramipexole at 0.1 mg/kg, doses between 0.0032 and 3.2 mg/kg; for Emax / Lowest dose active (significant increase in yawning): rats; for Lowest dose active (significant increase in yawning): s.c., yawns/60 min; for In vivo functional activity at the D3 receptor: yawning assays in rats
T3 construct: evaluated for the effect in the induction of yawning and hypothermia in rats; tissue Harlan; Indianapolis, Ind; host or cells: living male Sprague-Dawley rats
T3 sequence (P19020 whole entry): as the sequence (P19020 whole entry) above
Description: as §1
Yawning behavior was defined as a prolonged (˜1 sec.), wide opening of the mouth followed by a rapid closure. On the day of testing, rats were transferred from their home cage to a test chamber (48 cm×23 cm×20 cm clear rodent cage with standard cob bedding), and allowed to habituate to the chamber for a period of 30 min prior to a sterile water injection which was administered 30 min prior to the injection of the compound of interest. Yawns were scored for a period of 60 min thereafter. Each compound was assessed in groups of 6 rats, with each rat receiving a single dose of one compound. Food and water were unavailable during test sessions, and all experiments were conducted between the hours of 12:00 PM and 6:00 PM with at least 72 hrs between test sessions to allow for drug washout.
as §3

D2 receptor [2] = biological target: T2, D2 receptor; test: Effect on pramipexole-induced hypothermia in rats; format: in vivo; conditions: pretreatment 10.0 mg/kg; pramipexole 1.0 mg/kg
Description: as §1, §2, §3

## CCCN(CCC1CCC(NC(=O)c2ccc(-c3noc(C(C)C)n3)cc2)CC1)C1CCc2nc(N)sc2C1 (single isomer, unassigned) [Compound 35]
D3 dopamine receptors
  Ki: 2000 ± 190 pM
  Selectivity D1-like/D3: 5,366

## CCCN(CCC1CCC(NC(=O)c2ccc(-c3noc(C4CC4)n3)cc2)CC1)C1CCc2nc(N)sc2C1 (single isomer, unassigned) [Compound 36]
D3 dopamine receptors
  Ki: 3500 ± 570 pM
  Selectivity D1-like/D3: 3,245

## CCCN(CCC1CCC(NC(=O)c2cccc(-c3noc(CC)n3)c2)CC1)C1CCc2nc(N)sc2C1 (single isomer, unassigned) [Compound 37]
D3 dopamine receptors
  Ki: 1500 pM
  Selectivity D1-like/D3: 3,448
  Selectivity D2-like/D3: 339

## CCCN(CCC1CCC(NC(=O)c2ccc(-c3noc(C)n3)cc2)CC1)C1CCc2nc(N)sc2C1 (stereo in doubt) [Compound 33, Trans-N-(4-2-(((s)-2-amino-4,5,6,7-tetrahydrobenzo[d]thiazol-6-yl)(propyl)amino)ethylcyclohexyl)-4-(5-methyl-1,2,4-oxadiazol-3-yl)benzamide]
D3 dopamine receptors
  Ki: 1300 pM
  Selectivity D1-like/D3: 27,041
  Selectivity D2-like/D3: 345

## CCCN(CCC1CCC(NC(=O)c2ccc(-c3noc(CC)n3)cc2)CC1)C1CCc2nc(N)sc2C1 (stereo in doubt) [Compound 34, Trans-N-(4-2-(((s)-2-amino-4,5,6,7-tetrahydrobenzo[d]thiazol-6-yl)(propyl)amino)ethylcyclohexyl)-4-(5-ethyl-1,2,4-oxadiazol-3-yl)benzamide]
D3 dopamine receptors
  Ki: 2100 ± 150 pM
  Selectivity D1-like/D3: 8,381

## CCCN(CCC1CCC(NC(=O)c2cccc(-c3noc(C)n3)c2)CC1)C1CCc2nc(N)sc2C1 (stereo in doubt) [Compound 38, Trans-N-(4-2-(((s)-2-amino-4,5,6,7-tetrahydrobenzo[d]thiazol-6-yl)(propyl)amino)ethylcyclohexyl)-3-(5-methyl-1,2,4-oxadiazol-3-yl)benzamide]
Solubility in water
  solubility: > 100 mg/mL
D3 and D2 receptors
  Effect on yawning induced by 0.1 mg/kg pramipexole: effectively inhibited
D2 receptor [1]
  Induction of hypothermia: significant effect in induction of hypothermia
D3 dopamine receptors
  Ki: 730 pM
  Selectivity D2-like/D3: 494
D3 receptor
  Emax: 25%
  Lowest dose active (significant increase in yawning): 3.2 µg/kg
  In vivo functional activity at the D3 receptor: partial agonists at the D3 receptor
D2 receptor [2]
  Effect on hypothermic effects of pramipexole: slight, but significant reductions

## CCCN(CCC1CCC(NS(=O)(=O)c2cccc(F)c2)CC1)C1CCc2nc(N)sc2C1 (stereo in doubt) [Compound 43, Trans-N-(4-2-(((s)-2-amino-4,5,6,7-tetrahydrobenzo[d]thiazol-6-yl)(propyl)amino)ethylcyclohexyl)-3-fluorobenzenesulfonamide]
D3 dopamine receptors
  Ki: 720 pM

## CCCN(CCC1CCC(NS(=O)(=O)c2ccc(OC)cc2)CC1)C1CCc2nc(N)sc2C1 (stereo in doubt) [Compound 44, Trans-N-(4-2-(((s)-2-amino-4,5,6,7-tetrahydrobenzo[d]thiazol-6-yl)(propyl)amino)ethylcyclohexyl)-4-methoxybenzenesulfonamide]
D3 dopamine receptors
  Ki: 780 pM
  Selectivity D1-like/D3: 27,487
  Selectivity D2-like/D3: 49

## CCCN(CCC1CCC(NS(=O)(=O)c2cccc(Cl)c2)CC1)C1CCc2nc(N)sc2C1 (stereo in doubt) [Compound 45, Trans-N-(4-2-(((s)-2-amino-4,5,6,7-tetrahydrobenzo[d]thiazol-6-yl)(propyl)amino)ethylcyclohexyl)-3-chlorobenzenesulfonamide]
D3 dopamine receptors
  Ki: 1100 ± 100 pM

## CCCN(CCC1CCC(NS(=O)(=O)c2ccc(Cl)cc2)CC1)C1CCc2nc(N)sc2C1 (stereo in doubt) [Compound 46, Trans-N-(4-2-(((s)-2-amino-4,5,6,7-tetrahydrobenzo[d]thiazol-6-yl)(propyl)amino)ethylcyclohexyl)-4-chlorobenzenesulfonamide]
D3 dopamine receptors
  Ki: 950 ± 10 pM
  Selectivity D1-like/D3: 8,754
  Selectivity D2-like/D3: 75

## CCCN(CCC1CCC(NS(=O)(=O)c2ccccc2Cl)CC1)C1CCc2nc(N)sc2C1 (stereo in doubt) [Compound 47, Trans-N-(4-2-(((s)-2-amino-4,5,6,7-tetrahydrobenzo[d]thiazol-6-yl)(propyl)amino)ethylcyclohexyl)-2-chlorobenzenesulfonamide]
D3 dopamine receptors
  Ki: 680 ± 60 pM

## CCCN(CCC1CCC(NS(=O)(=O)c2ccc(Cl)nc2)CC1)C1CCc2nc(N)sc2C1 (stereo in doubt) [Compound 51, Trans-N-(4-2-(((s)-2-amino-4,5,6,7-tetrahydrobenzo[d]thiazol-6-yl)(propyl)amino)ethylcyclohexyl)-6-chloropyridine-3-sulfonamide]
D3 dopamine receptors
  Ki: 630 ± 40 pM
  Selectivity D1-like/D3: 12,933

## CCCN(CCC1CCC(NS(=O)(=O)c2cccnc2Cl)CC1)C1CCc2nc(N)sc2C1 (stereo in doubt) [Compound 52, Trans-N-(4-2-(((s)-2-amino-4,5,6,7-tetrahydrobenzo[d]thiazol-6-yl)(propyl)amino)ethylcyclohexyl)-2-chloropyridine-3-sulfonamide]
D3 and D2 receptors
  Effect on yawning induced by 0.1 mg/kg pramipexole: effectively inhibited
D2 receptor [1]
  Induction of hypothermia: significant effect in induction of hypothermia
D3 dopamine receptors
  Ki: 380 pM
  Selectivity D2-like/D3: 451
D3 receptor
  Emax: 25%
  Lowest dose active (significant increase in yawning): 3.2 µg/kg
  In vivo functional activity at the D3 receptor: partial agonists at the D3 receptor
D2 receptor [2]
  Effect on hypothermic effects of pramipexole: slight, but significant reductions

## CCCN(CCC1CCC(NS(=O)(=O)c2cnccc2Cl)CC1)C1CCc2nc(N)sc2C1 (stereo in doubt) [Compound 53, Trans-N-(4-2-(((s)-2-amino-4,5,6,7-tetrahydrobenzo[d]thiazol-6-yl)(propyl)amino)ethylcyclohexyl)-4-chloropyridine-3-sulfonamide]
D3 dopamine receptors
  Ki: 930 pM

## OC1(c2ccc(Cl)cc2)CCN(Cc2c[nH]c3ccccc23)CC1 [L-741,626, reference compound]
D3 and D2 receptors
  Effect on yawning at […] pramipexole: reversed the inhibition of yawning
  Effect on yawning induced by 0.1 mg/kg pramipexole: failed to alter the induction of yawning

## N#Cc1ccc2c(c1)CCN(CCC1CCC(NC(=O)c3ccnc4ccccc34)CC1)C2 (stereo not drawn) [SB-277011A, reference compound]
D3 and D2 receptors
  Effect on yawning at […] pramipexole: inhibited the induction of yawning
  Effect on yawning induced by 0.1 mg/kg pramipexole: inhibited the induction of yawning
